Among the data in PubChem BioAssay (NCI) are TGI and GI50 values, retold here.

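1) Cells in 96-well plates. 2) Compound, 48 h, 5 concentrations. 3) Linear interpolation between surrounding doses. 4) Unreached endpoint = highest concentration. GI50: concentration for 50% inhibition of growth. At the TGI there is no net growth.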

Test in all cases: inhibition of tumour cell growth, NCI panel, 48 h
Assay [1] relates to OVCAR-4 ovarian.
In assay [2] the test system is KM12 colon.
Assay [3] concerns CAKI-1 renal.
The subject of assay [4] is IGROV1 ovarian.
Assay [5] relates to ACHN renal.
The subject of assay [6] is HCT-15 colon.
The test system of assay [7] is SNB-19 CNS.
The test system of assay [8] is SK-MEL-5 melanoma.
The test system of assay [9] is K-562 leukemia.
Assay [10] concerns CCRF-CEM leukemia.

For the compound `Cc1ccc(S(=O)(=O)OC(C=O)C(O)C(O)COC(c2ccccc2)(c2ccccc2)c2ccccc2)cc1` (centres undefined), the TGI in assay [1] turned out to be 32.8 µM; in assay [2], 24.2 µM; in assay [3], 36.6 µM; in [4] it was 29.5 µM; in assay [5], 28.7 µM; in assay [6], 27.1 µM. In addition, the TGI in [7] is 31.7 µM; in assay [8], 28.9 µM; in [9], 35 µM.

Regarding `CCN1N=CSC12C(=O)N(c1ccccc1)C(=O)N2c1ccccc1` (centres undefined), the TGI in assay [1], in assay [2], in assay [3], in assay [10], in assay [4] and in assay [5] was above 100 µM in each case. Also, the TGI in assay [7], in assay [8] and in assay [9] was above 100 µM throughout.

Regarding `CC(=O)[CH-]C(=O)c1ccccc1.CC(=O)[CH-]C(=O)c1ccccc1.[O-]Cc1cccs1.[O-]Cc1cccs1.[Ti+4]`, the GI50 in assay [1] is above 100 µM; in assay [2] it was 47.9 µM; in assay [3], 71.6 µM; in [4], 89.9 µM; in [5], above 100 µM; in [6], 20 µM. Besides, the GI50 in [7] is above 100 µM; in assay [8], above 100 µM; in assay [9], 31.2 µM. For the same compound, the TGI in assay [1] is above 100 µM; in assay [2] it was above 100 µM; in [3], above 100 µM; in assay [4], above 100 µM; in assay [5] it was above 100 µM; in assay [6], 46.2 µM. The TGI in [7], in [8] and in assay [9] was above 100 µM throughout.

Take `Clc1ccc(C2=NN(c3ccccc3)C3c4cc(Br)ccc4OCC23)cc1` (centres undefined): the TGI in assay [2], in [10], in assay [4], in [5], in assay [7] and in assay [8] was above 100 µM each time. The TGI in assay [9] is above 100 µM.

Turning to `COC(=O)C12C3C=CC(O3)C1C1C=CC2O1` (centres undefined), the TGI in assay [2], in assay [10], in assay [4], in assay [5], in assay [6] and in assay [7] was above 100 µM each time. Moreover, the TGI in [8] and in [9] was above 100 µM each time.

On to `COC1C2c3ccccc3C(C#N)(Cc3ccc4c(c32)OCO4)N1C(=O)c1ccccc1` (centres undefined), for which the TGI in [2], in assay [10], in assay [4], in assay [5], in assay [6] and in [7] was above 100 µM in each case. Further, the TGI was 31.5 µM in assay [8] and above 100 µM in [9].

On to `Cc1cc(N(CCC#N)CCC#N)ccc1N=Nc1ccc([N+](=O)[O-])cc1`, for which the TGI in assay [1] is 44.1 µM; in assay [2], above 100 µM; in assay [3], above 100 µM; in assay [10], above 100 µM; in [5], above 100 µM; in assay [6], above 100 µM. The values for the TGI in assay [7], in assay [8] and in assay [9] were 57.3 µM, above 10 µM and above 100 µM, respectively.

Turning to `COC(=O)C1(C)CCc2c(ccc3ccccc23)C1=O` (centres undefined), the TGI in assay [2] was 70.4 µM; in [3], 41.6 µM; in assay [10], above 100 µM; in assay [4], 95.7 µM; in assay [5], above 100 µM; in assay [6] it was above 100 µM. Moreover, the TGI in assay [7] was above 100 µM; in assay [8], 35.9 µM; in assay [9] it was above 100 µM.

Regarding `Fc1cccc(C=NC23CC4CC(CC(C4)C2)C3)c1`, the TGI in [1], in assay [2], in [3], in [10], in [4] and in assay [5] was above 100 µM each time. Further, the TGI in [6], in assay [7] and in assay [9] was above 100 µM in each case.

Consider `C=C1C(=O)C23C(O)C1CCC2C12CO[C@]3(O)[C@@H](O)C1C(C)(C)CCC2O` (some centres undefined), for which the TGI in [2] came to 31.7 µM; in assay [3], 28.5 µM; in [10], 5.98 µM; in assay [4], 20.3 µM; in assay [5], 27.2 µM; in assay [6], 26.4 µM. Further, the TGI was 28.6 µM in [7], 37 µM in assay [8] and above 100 µM in assay [9].

On to `COc1cc(-c2[nH]ncc2CCCC(=O)Nc2ccccc2[N+](=O)[O-])ccc1O`, for which the TGI in assay [1], in [3], in assay [10], in assay [4], in [5] and in assay [6] was above 100 µM throughout. The TGI in assay [8] and in assay [9] was above 100 µM in each case.

For the compound `Oc1ccc(-c2nc(-c3ccc(F)cc3)c(-c3ccncc3)[nH]2)cc1`, the GI50 was 16.5 µM in assay [1]; 23 µM in assay [2]; 9.62 µM in [10]; 4.3 µM in assay [4]; 3.97 µM in assay [5]; 13.2 µM in [6]. Moreover, the GI50 was 35.3 µM in assay [7], 4.73 µM in [8] and 15.9 µM in [9]. The TGI is above 100 µM in assay [1]; 72.3 µM in assay [2]; 59.8 µM in assay [10]; 29.4 µM in assay [4]; above 100 µM in assay [5]; above 100 µM in assay [6]. Also, the TGI in assay [7] was above 100 µM; in assay [8], 29.6 µM; in assay [9], above 100 µM.

Consider `C=C1CCC2C3(C)COC(c4cccc(Cl)c4)OC3CCC2(C)C1/C=C/C1=CCOC1=O` (centres undefined), for which the GI50 in assay [2] was 8.01 µM; in [3], 7.78 µM; in assay [10], 7.51 µM; in assay [4], above 100 µM; in [5] it was above 100 µM; in assay [6], 6.75 µM. For the same compound, the GI50 in [7] was above 100 µM; in assay [8], 3.39 µM; in [9], 2.8 µM. Further, the TGI in [2], in assay [3], in [10], in assay [4], in assay [5] and in assay [6] was above 100 µM throughout. In addition, the TGI in assay [7], in assay [8] and in assay [9] was above 100 µM in each case.
